In US11713327B2, “Heteroaryl heterocyclyl compounds for the treatment of autoimmune disease” (Hoffmann-La Roche Inc., priority 2018, dated 2023):

Experiments:
hERG K+ channels = hERG K+ channels (Homo sapiens (Human), UniProt Q12809); assay: hERG channel inhibition assay (patch-clamp, CHOhERG cells); format: cell-based; conditions: for safety window (hERG IC20/TLR7/8/9 IC50): compared to the compounds of this invention; for hERG IC20/TLR7 IC50 / hERG IC20/TLR9 IC50: safety ratio
Method: hERG Channel Inhibition Assay:
The hERG K^+ channels were cloned in humans and stably expressed in a CHO (Chinese hamster ovary) cell line. CHOhERG cells were used for patch-clamp (voltage-clamp, whole-cell) experiments. Cells were stimulated by a voltage pattern to activate hERG channels and conduct IKhERG currents (rapid delayed outward rectifier potassium current of the hERG channel). After the cells were stabilized for a few minutes, the amplitude and kinetics of IKhERG were recorded at a stimulation frequency of 0.1 Hz (6 bpm). Thereafter, the test compound was added to the preparation at increasing concentrations. For each concentration, an attempt was made to reach a steady-state effect, usually, this was achieved within 3-10 min at which time the next highest concentration was applied. The amplitude and kinetics of IKhERG are recorded in each concentration of the drug which were compared to the control values (taken as 100%). (references: Redfern W S, Carlsson L, Davis A S, Lynch W G, MacKenzie I, Palethorpe S, Siegl P K, Strang I, Sullivan A T, Wallis R, Camm A J, Hammond T G. 2003; Relationships between preclinical cardiac electrophysiology, clinical QT interval prolongation and torsade de pointes for a broad range of drugs: evidence for a provisional safety margin in drug development. Cardiovasc. Res. 58:32-45, Sanguinetti M C, Tristani-Firouzi M. 2006; hERG potassium channels and cardiac arrhythmia. Nature 440:463-469, Webster R, Leishman D, Walker D. 2002; Towards a drug concentration effect relationship for QT prolongation and torsades de pointes. Curr. Opin. Drug Discov. Devel. 5:116-26).

[1] = Human microsome stability assay; format: in vitro ADME; conditions: 1 μM test compound, 0.5 mg/mL liver microsomal protein
Method: Human Microsome Stability Assay
The human microsomal stability assay is used for early assessment of metabolic stability of a test compound in human liver microsomes.
Human liver microsomes (Cat. NO.: 452117, Corning, USA; Cat. NO.: H2610, Xenotech, USA) were preincubated with test compound for 10 minutes at 37° C. in 100 mM potassium phosphate buffer, pH 7.4. The reactions were initiated by adding NADPH regenerating system. The final incubation mixtures contained 1 μM test compound, 0.5 mg/mL liver microsomal protein, 1 mM MgCl2, 1 mM NADP, 1 unit/mL isocitric dehydrogenase and 6 mM isocitric acid in 100 mM potassium phosphate buffer, pH 7.4. After incubation times of 0, 3, 6, 9, 15 and 30 minutes at 37° C., 300 μL of cold acetonitrile (including internal standard) was added to 100 μL incubation mixture to terminate the reaction. Following precipitation and centrifugation, the amount of compound remaining in the samples were determined by LC-MS/MS. Controls of no NADPH regenerating system at zero and 30 minutes were also prepared and analyzed.

Sequence of hERG K+ channels (Q12809 whole entry): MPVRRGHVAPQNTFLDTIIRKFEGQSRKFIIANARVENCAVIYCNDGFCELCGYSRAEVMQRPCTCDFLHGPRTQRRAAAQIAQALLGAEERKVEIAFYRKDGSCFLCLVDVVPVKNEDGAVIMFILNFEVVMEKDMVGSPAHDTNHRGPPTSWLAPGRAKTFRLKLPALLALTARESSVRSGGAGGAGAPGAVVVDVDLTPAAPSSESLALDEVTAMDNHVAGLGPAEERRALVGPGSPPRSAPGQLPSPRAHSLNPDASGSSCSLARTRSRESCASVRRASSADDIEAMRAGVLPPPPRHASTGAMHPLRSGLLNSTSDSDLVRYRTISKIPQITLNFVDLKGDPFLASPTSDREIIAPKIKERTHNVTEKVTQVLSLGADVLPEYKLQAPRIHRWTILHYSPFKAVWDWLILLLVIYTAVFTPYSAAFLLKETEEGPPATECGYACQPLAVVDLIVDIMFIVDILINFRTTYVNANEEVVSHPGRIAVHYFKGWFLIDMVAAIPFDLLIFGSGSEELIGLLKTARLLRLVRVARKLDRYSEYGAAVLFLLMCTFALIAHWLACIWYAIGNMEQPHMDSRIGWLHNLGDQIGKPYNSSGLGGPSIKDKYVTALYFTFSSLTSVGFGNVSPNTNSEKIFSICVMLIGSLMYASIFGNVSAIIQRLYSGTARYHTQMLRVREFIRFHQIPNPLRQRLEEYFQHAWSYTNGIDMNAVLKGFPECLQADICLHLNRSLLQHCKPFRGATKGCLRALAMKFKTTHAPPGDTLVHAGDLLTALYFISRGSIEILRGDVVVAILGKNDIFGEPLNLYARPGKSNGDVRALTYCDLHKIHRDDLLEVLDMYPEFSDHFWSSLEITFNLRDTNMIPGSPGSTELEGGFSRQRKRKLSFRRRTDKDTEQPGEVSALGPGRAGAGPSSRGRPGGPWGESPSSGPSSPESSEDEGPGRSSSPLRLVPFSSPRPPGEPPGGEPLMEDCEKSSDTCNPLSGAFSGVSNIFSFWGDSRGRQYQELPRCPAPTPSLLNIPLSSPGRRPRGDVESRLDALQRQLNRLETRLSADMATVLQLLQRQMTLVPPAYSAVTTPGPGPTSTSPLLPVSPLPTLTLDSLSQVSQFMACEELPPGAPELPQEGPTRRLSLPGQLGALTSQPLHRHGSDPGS

Row | Compound | safety window (hERG IC20/TLR7/8/9 IC50) (hERG K+ channels) | hERG IC20/TLR7 IC50 (hERG K+ channels) | hERG IC20/TLR9 IC50 (hERG K+ channels) | Clearance of Human microsome [1] [mL/min/kg]
1 | C[C@@H]1CN(c2ccc(C#N)c3ncccc23)C[C@H](CN2CCN(c3ccccc3)CC2)O1 [ER-887258] | much narrower safety window | 8.1 | 0.3 | 
2 | C[C@@H]1CN(c2ccc(C#N)c3ncccc23)C[C@H](CN2CCN(c3ccccn3)CC2)O1 [ER-888285] | much narrower safety window | 8.4 | 0.5 | 
3 | C[C@@H]1CN(c2ccc(C#N)c3ncccc23)C[C@H](CN2CCN(c3ccncc3)CC2)O1 [ER-888286] | much narrower safety window | 0.3 | 0.2 | 
4 | C[C@@H]1CN(c2ccc(C#N)c3ncccc23)C[C@H](CN2CC3(C2)CN(c2cnc4c(n2)CCNC4)CCO3)O1 [Example 50, 5-[(2R,6S)-2-methyl-6-[[8-(5,6,7,8-tetrahydropyrido[3,4-b]pyrazin-2-yl)-5-oxa-2,8-diazaspiro[3.5]nonan-2-yl]methyl]morpholin-4-yl]quinoline-8-carbonitrile] |  |  | >144.9 | 
5 | C[C@@H]1CN(c2ccc(C#N)c3ncccc23)C[C@H](CN2CCN(c3ccc4c(n3)CN[C@H]4C)CC2)O1 [Example 63, 5-[(2R,6S)-2-methyl-6-[[4-[(5S)-5-methyl-6,7-dihydro-5H-pyrrolo[3,4-b]pyridin-2-yl]piperazin-1-yl]methyl]morpholin-4-yl]quinoline-8-carbonitrile] |  |  |  | 6.15
6 | [2H]c1nc2c(C#N)ccc(N3C[C@H](CN4CCN(c5cc6c(cn5)[C@@H](C)NCC6)CC4)O[C@H](C)C3)c2nc1[2H] [Example 95, 2,3-dideuterio-8-[(2R,6S)-2-methyl-6-[[4-[(8R)-8-methyl-5,6,7,8-tetrahydro-2,7-naphthyridin-3-yl]piperazin-1-yl]methyl]morpholin-4-yl]quinoxaline-5-carbonitrile] |  |  |  | 7.13
7 | [2H]c1nc2c(C#N)ccc(N3C[C@H](CN4CCN(c5ccc6c(n5)CN[C@H]6C)CC4)O[C@H](C)C3)c2nc1[2H] [Example 96, 2,3-dideuterio-8-[(2R,6S)-2-methyl-6-[[4-[(5S)-5-methyl-6,7-dihydro-5H-pyrrolo[3,4-b]pyridin-2-yl]piperazin-1-yl]methyl]morpholin-4-yl]quinoxaline-5-carbonitrile] |  |  |  | 6.23
8 | [2H]c1nc2c(C#N)ccc(N3C[C@H](CN4CCN(c5ccc6c(n5)CN[C@@H]6C)CC4)O[C@H](C)C3)c2nc1[2H] [Example 97, 2,3-dideuterio-8-[(2R,6S)-2-methyl-6-[[4-[(5R)-5-methyl-6,7-dihydro-5H-pyrrolo[3,4-b]pyridin-2-yl]piperazin-1-yl]methyl]morpholin-4-yl]quinoxaline-5-carbonitrile] |  |  |  | 6.15
9 | [2H]c1ccc2c(N3C[C@H](CN4CCN(c5ccc6c(n5)CN[C@@H]6C)CC4)O[C@H](C)C3)ccc(C#N)c2n1 [Example 98, 2-deuterio-5-[(2R,6S)-2-methyl-6-[[4-[(5R)-5-methyl-6,7-dihydro-5H-pyrrolo[3,4-b]pyridin-2-yl]piperazin-1-yl]methyl]morpholin-4-yl]quinoline-8-carbonitrile] |  |  |  | 8.02
10 | [2H]c1ccc2c(N3C[C@H](CN4CCN(c5ccc6c(n5)CN[C@H]6C)CC4)O[C@H](C)C3)ccc(C#N)c2n1 [Example 99, 2-deuterio-5-[(2R,6S)-2-methyl-6-[[4-[(5S)-5-methyl-6,7-dihydro-5H-pyrrolo[3,4-b]pyridin-2-yl]piperazin-1-yl]methyl]morpholin-4-yl]quinoline-8-carbonitrile] |  |  |  | 6.32
11 | COc1ccc(N2CCN(C[C@H]3CN(c4ccc(C#N)c5ncccc45)C[C@@H](C)O3)CC2)cc1 [Example R1, 5-[(2S,6R)-2-[[4-(4-methoxyphenyl)piperazin-1-yl]methyl]-6-methyl-morpholin-4-yl]quinoline-8-carbonitrile] | much narrower safety window | 9.3 | 0.1 | 
12 | C[C@@H]1CN(c2ccc(C#N)c3ncccc23)C[C@H](CN2CCN(c3ccc(Cl)cc3)CC2)O1 [Example R2, 5-[(2S,6R)-2-[[4-(4-chlorophenyl)piperazin-1-yl]methyl]-6-methyl-morpholin-4-yl]quinoline-8-carbonitrile] | much narrower safety window | 1.3 | 0.04 | 
